From article PMC5659893 (2017) come the findings set out here.

The series can be described thus: second and third wash supernates of 1×10^8 RBCs/mL. The conditions noted are these: human, 37°C, up to 24 hours.

Take RRGWALRLVLAY-NH2: the not cleaved entry is “more than 90% recovered after 24 hours”. The entry for ILPWKWPWWPWRR-NH2 is “more than 90% recovered after 24 hours”.
